Experimental data from patent US7304091B2, “Statin-like compounds” (Myco TeO A/S, priority 2001, dated 2007).

Tested on: male White rabbits
Test: Test of cholesterol-lowering effect in rabbits fed 1% cholesterol diet
Format: in vivo
Method: The cholesterol-lowering effect of Statan A was compared against a control in male White rabbits (purchased from Hvidesten, DK). The rabbits were housed in individual stainless steel cages with free access to water. The rabbits were divided into groups with similar baseline values of plasma cholesterol, which groups received: • 1) 5 mg/day PD498 (n=2)(Statan A), • 2) control group (n=4).
The rabbits were treated for 3 days. All animals were fed daily with 100 g of a standard rabbit diet (Altromin, Lage, Germany) containing 1% cholesterol. All test drugs were added to the diet. Remaining food were weighed.
Blood samples for cholesterol determination were drawn at baseline and at the three following days. Blood samples were taken from the marginal ear vein and the cholesterol determination was done the same day by enzymatic […] methods, using a commercially available kit (CHOD-PAP, Roche), on a COBAS MIRA auto-analyzer (Roche, Basle, CH).
Ten kg 1% cholesterol chow: 100 g cholesterol is dissolved in 500 g corn oil by heating to 40° C. […]

| Compound | Total plasma cholesterol levels compared to the control group (male White rabbits, 5 mg/day in 1% cholesterol diet, treated for 3 days, blood at baseline and three following days, FIG. 2) | cholesterol-lowering effect (rabbits, same method as Example 13) |
| --- | --- | --- |
| Cc1ccc2cccc(O)c2c1CCC1CC(O)CC(=O)O1 (centres unmarked) [Statan A] | consistently lower | – |
| Cc1ccc2ccccc2c1CC[C@@H]1C[C@@H](O)CC(=O)O1 [solistatin] | – | had cholesterol-lowering effect |
